Values quoted from earlier work, collected in patent US20160303051A1, “Burst Drug Release Compositions” (Wyeth LLC, priority 2009, published 2016).

CC(C)Cc1ccc(C(C)C(=O)O)cc1 (stereo not shown) [Ibuprofen, ibuprofen]
solubility (BCS): low solubility
